Test results taken from a melting point compilation (Tetko et al.; mined from patent text by program, amines drawn as free bases though some values may be those of a salt).

Row | SMILES | melting point [°C]
1 | c1cc2cc3ccc(OCCN4CCCCC4)cc3nc2cc1OCCN1CCCCC1 | 129 to 130
2 | Cc1[nH]c2ccc(OC(C)C(C)N3CCCC3)cc2c1C(=O)OCc1ccccc1 (stereo not drawn) | 94 to 98
3 | CC1(C)Cc2c(N)ccc(O)c2O1 | 194
4 | C=CCOc1nc2cccc(C(=O)OC)c2n1Cc1ccc(-c2ccccc2-c2nnn[nH]2)cc1 | 154 to 156
5 | O=C(O)[C@H](Cc1ccc(C(F)(F)F)cc1)[C@@H](O)c1ccccc1F (racemic) | 122 to 123
6 | CC(C(=O)O)c1cccc(Sc2ccccc2Cl)c1O (stereo not drawn) | 143 to 145
7 | O=C(Nc1cccnn1)N1CCN(c2nccc(-c3cccc(F)c3)n2)CC1 | 238 to 239
8 | O=c1[nH]c2ccccc2n1CCCN1CCN(C(c2ccc(Cl)cc2)c2cccnc2)CC1 (stereo not drawn) | 183
9 | O=C1NCCN1CCN1CCC(c2noc3cc(F)ccc23)CC1 | 137 to 141
10 | COCC(=O)Nc1ccc(C2=NNC(=O)C3CC23)cc1 (stereo not drawn) | 206
11 | CCOCCn1c(NC2CCN(CC(=O)O)CC2)nc2cccnc21 | 227
12 | CN(C)CCNC(=O)Cn1c(-c2ccc(Cl)cc2)nc2cccnc21 | 195 to 196
13 | COC(=O)CCc1ccc(NC(=O)N(NC(=O)c2ccccc2)c2ccc(C#N)cc2)cc1 | 76 to 81
14 | COc1cc2c(cc1N)N(C)C(=O)CN(CC#N)C2 | 128 to 132
15 | O=C(O)c1ccc(OCc2ccc3ccccc3n2)cc1 | > 300
16 | CCOC(=O)/C=C/c1ccc(OCCOC2CC2)cc1Oc1ncc(C(F)(F)F)cc1Cl | 75.4 to 75.9
17 | O=C(Nc1ccc(-n2nc(C(F)(F)F)cc2C(F)(F)F)cc1)c1cccc(C(F)(F)F)c1 | 143 to 145
18 | CC(=O)Oc1ccc(-c2c(C)c3ccc(OC(C)=O)cc3oc2=O)c(OC(C)=O)c1 | 145
19 | Cc1cc2ccccn2c1C(=O)c1ccc2c(c1)c(=O)c(C(=O)O)cn2C | 308
20 | Cn1cc(C(=O)O)c(Nc2ccc(F)cc2F)cc1=O | 253 to 255
21 | CCNc1nc(-c2ccc(F)cc2C)c2ccc(=O)n(-c3ccccc3F)c2n1 | 176 to 177
22 | O=c1cc(N2CCOCC2)[nH]c2c(-c3ccc([N+](=O)[O-])c4c3oc3ccccc34)cccc12 | 247
23 | Cc1nc2c(c(-c3ccccc3)nn2C)c(-c2ccc(F)cc2)c1CO | 231 to 236
24 | O=C1Nc2cc(F)ccc2N2CCN(Cc3ccncc3)CC12 (stereo not drawn) | 269 to 272
25 | COC(=O)[C@@H](Cc1ccccc1)Oc1c(Br)cc(-c2c3ccccc3c(Br)c3sc(C)c(C)c23)cc1Br | 174 to 175

Row | SMILES | melting point [°C]
26 | COc1ccc(C2=NN(CC=Cc3ccccc3)C(=O)C3CCCCC23)cc1OC (stereo not drawn) | 76 to 79
27 | Cc1ccc(-c2[nH]c(-c3cnc4ccccc4c3)nc2C(=O)Nc2nccs2)cc1 | > 250
28 | Cc1cc(=O)n2cccc(O)c2n1 | 144 to 145
29 | O=C1CC(c2ccc(Cl)cc2)CC(=O)N1c1ccncc1 | 204 to 206
30 | Cc1ccnc(NC(=O)c2ccn3c2CSC3c2cccnc2)c1 (stereo not drawn) | 163
31 | CC(=O)SCC(Cc1c(Cl)cccc1Cl)C(=O)NN1CCOCC1 (stereo not drawn) | 175
32 | Cc1cc(Nc2nc(-c3ccncc3)nc3ccccc23)[nH]n1 | 286 to 289
33 | CCCOc1ccc(C(=O)N/C(=C\c2ccc(OC(F)(F)F)cc2)C(=O)NCCO)cc1 | 185 to 186
34 | Clc1ccccc1-c1cc(-c2ccccc2)c(-c2ccccc2Cl)nn1 | 176 to 178
35 | O=C(N[C@@H](Cc1ccc2ccccc2c1)C(=O)O)OCc1ccccc1 | 109 to 111
36 | CCOC(=O)C(C(=O)OCC)[C@H](C[N+](=O)[O-])c1ccccc1 | 45 to 47
37 | COC1=C(C)C(=O)c2ccccc2C1=O | 93 to 94
38 | Cc1n[nH]c(=O)c(-c2c(F)cc(F)cc2F)c1-c1ccc2ccccc2c1 | 266 to 268
39 | COc1ccc(C)cc1NC(=O)Nc1ccc(N2CCN(C(=O)Nc3ccc(CCO)cc3C)CC2)cc1 | 119 to 121
40 | C=Cc1cccc2c1-c1ccc3c(c1C(C1(C)CC=CCC1)O2)C(C)=CC(C)(C)N3 (stereo not drawn) | 198 to 201
41 | CCCc1nc2c(N)nc(C)c(C)c2n1CCCCS(C)(=O)=O | 152 to 153
42 | CCC(=O)Nc1c(C(=O)c2cc(CO)co2)[nH]c2cc(Cl)ccc12 | 171 to 172
43 | N#Cc1cc(F)c(-n2nc(C(F)(F)F)n(C(F)F)c2=O)cc1F | 68
44 | O=c1[nH]c2ccc(C3=NOC(CCN4CCC(Cc5ccc(F)cc5)CC4)C3)cc2o1 (stereo not drawn) | 254 to 258
45 | CCOC(=O)c1ccc(COCc2csc3nc(C(=O)NCc4cccc(SC)c4)[nH]c(=O)c23)cc1 | 207 to 209
46 | O=C(O)c1ccc(Cl)c2c1NCCS2 | 220
47 | CN1Cc2c(C#CC3(O)CCC3)ncn2-c2ccc(F)cc2C1=O | 177 to 179
48 | N#Cc1ccc2c(c1)ncn2-c1cccc(I)c1 | 177 to 179
49 | O=C1NCCCN1c1ccccc1 | 210 to 211
50 | CCCCCCOc1ccc(NS(=O)(=O)c2ccc(N3CCNC3=O)cc2)cc1 | 225 to 226

Row | SMILES | melting point [°C]
51 | CC1=Nc2c(F)c(F)c(F)c(F)c2SN1 | 290 to 291
52 | S=C(Nc1ccc(Cl)cc1)NC12CC3CC(CC(C3)C1)C2 | 185
53 | CC(C)c1nc(C2CCCCC2)cc(-c2ccc(F)cc2)c1CO | 101 to 104
54 | Cc1ccc(Cc2cnc(NCCSCc3csc(CN(C)C)n3)[nH]c2=O)cn1 | 154 to 155
55 | CC(c1ccc(F)cc1)n1nc(-c2ccc(F)cc2)c(-c2ccc(S(C)(=O)=O)cc2)cc1=O (stereo not drawn) | 185 to 186
56 | O=C(Cc1ccccc1)c1cc(O)c(O)c([N+](=O)[O-])c1 | 181 to 182
57 | CC(=O)OCC1OC(OC2C(COC(C)=O)OC(Sc3ccc(N)cc3)C(OC(C)=O)C2OC(C)=O)C(OC(C)=O)C(OC(C)=O)C1OC(C)=O (stereo not drawn) | 145 to 148
58 | COc1ccc(C2=NN(Cc3ccc(C(=O)O)cc3)C(=O)[C@H]3CCCC[C@@H]23)cc1OC1CCCC1 (relative stereo) | 189 to 190
59 | O=C(Cc1cccc2ccccc12)Nc1cc([C@H]2C[C@@H](NC(=O)c3ccccc3)C2)[nH]n1 | 194
60 | CCOC(=O)C1CC(=O)c2cc(C(C)(C)C)cc(C(C)(C)C)c2O1 (stereo not drawn) | 61 to 63
61 | COc1ccc(COc2cccc(C(=O)Nc3ccc(S(C)(=O)=O)cc3)c2)cc1 | 173 to 174
62 | O=C(Nc1cccc2c1C(=O)c1c-2n[nH]c1-c1ccc(C(=O)NC2CCCNC2)s1)NN1CCOCC1 (stereo not drawn) | > 300
63 | CC(C)(NC=O)c1ccc(I)cc1 | 121 to 125
64 | c1ccc(Cn2c3ccccc3c3cc(-c4nc(C5CC5)no4)sc32)cc1 | 140 to 141
65 | Cc1ccc(=NC#N)n(-c2cccc(C(F)(F)F)c2)c1 | 165
66 | Cc1ccc(N)cc1Nc1ncc(-c2cccnc2)o1 | 166
67 | CCCc1ccc(S(=O)(=O)Nc2ccc3ncncc3c2)cc1 | 202 to 203
68 | O=C(O)CP(=O)(O)C[C@H](Cc1ccccc1)NC(=O)c1ccccc1 | 105 to 107
69 | Cc1cc2ccncc2c(=O)c2ccccc12 | 112 to 116
70 | CCc1ncc(CCCOc2c(C)cc(-c3noc(C(F)F)n3)cc2C)s1 | 68 to 70
71 | CC(C)(C)[Si](C)(C)OCC1(CO[Si](C)(C)C(C)(C)C)c2ccccc2-c2ccccc21 | 84
72 | OC/C=C/c1ccc(O)c(OCc2ccccc2)c1 | 99 to 101
73 | CCC(CC)NC(=O)n1nc(Oc2c(Cl)cc(C(F)(F)F)cc2Cl)cc1C | 65 to 67
74 | COC(=O)c1ccc(CC(C)NCC(O)c2ccc(O)c(CO)c2)cc1O (stereo not drawn) | 81 to 83
75 | N#Cc1cc(N)c(N)c(C#N)c1 | 240 to 244

Row | SMILES | melting point [°C]
76 | O=C(CCC1c2ccccc2-c2ccccc21)Nc1ccc(C(=O)O)c(O)c1 | 225 to 228
77 | COc1ccc([N+](=O)[O-])cc1C(O)OC (stereo not drawn) | 147 to 148
78 | COCc1c(C(=O)OC(C)(C)C)ncc2[nH]c3ccc(Oc4ccc(Br)cn4)cc3c12 | 173 to 175
79 | CC(C)Oc1ccc(C(=O)N2CCNC2=Nc2c(Cl)cccc2Cl)cc1 | 146 to 148
80 | C#CCCOc1cc(NC(=O)CC(CC(=O)O)C(F)(F)F)c(F)cc1Cl (stereo not drawn) | 136 to 137
81 | OCc1cc(N2CCCCC2)ncn1 | 70 to 72
82 | CNC(=O)[C@H]1S[C@@H](n2cnc3c(NCc4cccc(I)c4)nc(Cl)nc32)[C@H](O)[C@@H]1O | 140 to 141
83 | O=C(O)c1ccc(OCCNC(=O)C2Cc3ccccc3N2S(=O)(=O)c2ccc(-c3ccc(F)cc3Cl)cc2)cc1 (stereo not drawn) | 90
84 | CC(C)Oc1ccc(C(=O)n2nc(Nc3ccc(O)cc3)nc2N)cc1 | 229 to 234
85 | OCCCc1ccc2ccccc2c1O | 85 to 86
86 | COc1ccccc1-n1nccc1-c1nn(-c2cccc(C(F)(F)F)c2)ccc1=O | 146 to 147
87 | CCOC(=O)c1cc2c(F)cc(F)cc2[nH]1 | 153 to 154
88 | CCC(CC)Nc1cc(C)nc(Oc2c(C)cc(Cl)cc2C)c1NC(C)=O | 161 to 164
89 | CCCCCS(=O)(=O)NC(=O)CCc1cc(OCCCC)nn1Cc1ccc(C(F)(F)F)cc1Cl | 131 to 133
90 | Cc1ccc2c(c1)c1c(CC(=O)N(C)C)nn(-c3ccccc3)c(=O)c1n2C | 209 to 210
91 | CCOC(=O)C1n2c3ccccc3c3c4c(c5c6ccccc6n(c5c32)CS1(=O)=O)C(=O)NC4=O (stereo not drawn) | 298 to 300
92 | O=[N+]([O-])c1ccccc1N1CCN(c2ccccc2)CCN1 | 119 to 121
93 | CCOC(=O)c1cn(C2CC2)c2cc(-n3cccc3)c(F)cc2c1=O | 216 to 219
94 | O=C(Nc1ccc2nc(CN3CCCC3)ccc2c1)[C@H]1CO[C@H](c2ccc(Cl)cc2)OC1 | 244 to 246
95 | CCCCCCCCCC(=O)Nc1ccc(S(=O)(=O)Nc2nnc(CC(=O)OCC)s2)cc1 | 89 to 90
96 | O=C(O)c1ccc(CCCc2ccc(Br)cc2OCc2ccccc2)cc1 | 141 to 142
97 | CC(C)COC(=O)Oc1c(S(N)(=O)=O)sc2ccccc12 | 129 to 130
98 | COC(=O)c1nn(C2CCCCO2)cc1NC(=O)c1ccc(C)nc1 (stereo not drawn) | 142 to 143
